Data published in patent US20110318431A1, “Pharmaceutical Compositions and Methods of Treating Neurological Insults” (ENDOGENX, priority 2008, published 2011).
Entries after “also recorded” stand apart in the source; their conditions may differ. Where two headings read alike, the source gives them in different places.

How the values were obtained:
[1] = Clinical study in patients with infarct: Glasgow outcome scale, Barthel Index, Modified Rankin Score; format: in vivo, human
[2] = cited from earlier work
[3] = Evaluation of therapy for side effects of magnesium sulfate with and without mannitol treatment
Method: Safety—safety of subjects was maintained at all times. Adverse events and clinical laboratory data were obtained. Serious and non-serious adverse effects and clinical laboratory data were compared between groups.
Group 1. Magnesium sulfate 16 gm a day (4 vials each of 1 gm of magnesium sulfate mixed with 100 ml normal saline was infused 6 hourly for five days)
Group 3. Magnesium sulfate 8 gm a day plus mannitol (2 vials each of 1 gm of magnesium sulfate mixed with 50 ml normal saline was infused 6 hourly for five days; in addition 100 ml of 20% mannitol once a day with first dose of magnesium sulfate was administered)
Evaluation of therapy for side effects of magnesium sulfate with and without mannitol treatment

[4] = 16 mmol bolus and 65 mmol continuous infusion over 24 hrs; cited from earlier work
[5] = at the end of three months; 4 g IV and 10 g IM within 12 hours of injury, then 5 g IM every 4 hours for 24 hours; cited from earlier work
[6] = pediatric TBI patients; 50 mg/kg IV then 8.3 mg/kg/hour for 24 hours; cited from earlier work
[7] = cited from earlier work; remark: listed apart in the source
[8] = magnesium therapy; cited from earlier work
[9] = end of 24 hour infusion, cited from earlier work
[10] = cited from earlier work; remark: listed apart in the source
[11] = 283 patients with aneurysmal subarachnoid hemorrhage; cited from earlier work
[12] = cited from earlier work; remark: listed apart in the source
[13] = after one month of follow up; loading dose 16 mM then 6 mM/hour for 5 days IV; cited from earlier work
[14] = cited from earlier work; remark: listed apart in the source
[15] = cited from earlier work; remark: listed apart in the source
[16] = number out of total 15 patients, magnesium sulfate 16 gm a day, five days

## O=S(=O)([O-])[O-].[Mg+2] [magnesium sulfate]
[1]; magnesium sulfate 16 gm a day for five days
  Patient outcome, magnesium sulfate (16 gm) group compared to mannitol group: improved
[1]; patients with cerebrovascular accidents
  Effectiveness of magnesium sulfate (16 gm) versus magnesium sulfate (8 gm) plus mannitol: equally effective
[2]; at 3 months
  Patients with good functional outcome: 60%
[2]; rated by paramedics, 10 mmol bolus and 64 mmol infusion over 24 hrs
  Patient status on hospital arrival rated improved: 20%
[2]; rated by paramedics
  Patient status on hospital arrival rated unchanged: 75%
  Patient status on hospital arrival rated worsened: 5%
[3]; five days treatment
  Incidence of side effects, magnesium sulfate (16 gm) alone compared to magnesium sulfate (8 gm) plus mannitol: greater; also recorded: higher
[3]; [16]
  Constipation: 4
  Facial flushing: 8
  Heart block: 3
  Hypotension: 3
  Nausea: 5
  Paradoxical bradycardia: 3
  Respiratory distress: 2
[4]
  Mortality versus placebo: slightly higher
  Primary outcome: not improved

## [Mg] [magnesium]
[5]
  Patients with favorable outcome including reduced mortality and intra-operative brain swelling: 73%
[6]
  Adverse hemodynamic effects: No adverse hemodynamic effects were observed
[7]; administration within 8 hours of moderate to severe TBI for 5 days, continuous infusion
  Composite primary outcome at 6 months post-injury: did not show any beneficial effects
[7]; high dose of magnesium
  Mortality: Significantly higher mortality
[7]; lower dose of magnesium
  Composite score versus placebo: worse than the placebo treated patients
[8]
  Outcome at six months: failed to provide a favorable outcome
[9]
  CSF ionized magnesium increase relative to baseline: 11%
  CSF total magnesium increase relative to baseline: 15%
[9]; dose adjusted to serum 2.1-2.5 mM/L
  Serum magnesium concentrations relative to baseline: doubled from baseline
[10]; over 24 hours, 8 mmol over 15 minutes followed by 65 mmol over 24 hours IV, rose from 0.76 mM/L
  Serum magnesium level: 1.42 mM/L
[10]; stroke patients
  Blood pressure or adverse events versus placebo-treated patients: No differences
[11]
  Delayed cerebral ischemia and subsequent poor outcome: reduced
[12]; 16 mmol loading infusion
  Target serum concentrations achieved: 1.49 mmol/L
[12]; loading dose 8, 12 or 16 mM followed by 65 mM infusion over 24 hours
  Effects on heart rate, blood pressure, or blood glucose: no obvious effects
[13]
  Patient outcome, outcome scales (Orgogozo, Mathew, Rankin): significant positive effect

## OC[C@@H](O)[C@@H](O)[C@H](O)[C@H](O)CO [mannitol, D-mannitol]
[1]; 100 ml 20% mannitol once a day for five days
  Effectiveness of mannitol compared to control: not effective compared to control
[1]; 100 ml 20% mannitol once a day for five days, day 1, day 5, day 15, day 30
  Glasgow outcome scale (GOS), Barthel Index (BI) and Modified Rankin Score (MRS), mannitol group versus control group: similar
[1]; day 5, day 15, day 30
  Barthel Index (BI) and Modified Rankin Score (MRS), mannitol group compared to magnesium sulfate (8 gm) plus mannitol group: significantly higher
  Barthel Index (BI) and Modified Rankin Score (MRS), mannitol group compared to magnesium sulfate (16 gm) group: significantly higher
  Glasgow outcome scale (GOS), mannitol group compared to magnesium sulfate (8 gm) plus mannitol group: significantly lower
  Glasgow outcome scale (GOS), mannitol group compared to magnesium sulfate (16 gm) group: significantly lower
[14]; humans with normal renal function
  Half life: 1.2 h
[14]; humans
  Osmolal gap corresponding to renal toxicity: > 55 mosm/kg of water
  Serum mannitol concentration at which renal toxicity / acute renal failure occurs: > 1000 mg/dL
[14]; uremia patients
  Half life: 36 h
[15]; massive mannitol infusion to 4 male adults
  Mortality with acute renal failure: 2/4
[15]; massive mannitol infusion, Mean+SD
  Onset of acute renal failure after infusion: 48 ± 22 h
